Experimental data from PubChem BioAssay AID330 (DTP/NCI, 2004).
Values joined by “and” are separate entries in the source; they are usually repeats but may differ in a detail not shown here. Equal entries are not always repeated. Toxic doses and inconclusive results are not listed. The calls were made as follows: active = survival T/C of 150% or more; inactive = T/C below 125% in these data.

Test system: P388 leukemia ip, CD2F1 mice, survival T/C
Assay: NCI In Vivo Anticancer Drug Screen. Data for tumor model P388 Leukemia (intraperitoneal) in CD2F1 (CDF1) mice
Details: endpoint: median survival time, higher = longer survival
Outline: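 Mice carrying the transplanted tumor received test compound or vehicle. Survival was recorded in each group, and the value is the treated-group measurement divided by that of the vehicle-treated control group.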

[1] = dose: 50.0 mg/kg/injection, schedule: Q01DX005 (ip), vehicle: saline with Tween-80
[2] = dose: 100.0 mg/kg/injection, schedule: Q01DX005 (ip), vehicle: saline with Tween-80
[3] = dose: 200.0 mg/kg/injection, schedule: Q01DX005 (ip), vehicle: saline with Tween-80
[4] = dose: 50.0 mg/kg/injection, schedule: Q01DX009 (ip), vehicle: saline with Tween-80
[5] = dose: 100.0 mg/kg/injection, schedule: Q01DX009 (ip), vehicle: saline with Tween-80
[6] = dose: 200.0 mg/kg/injection, schedule: Q01DX009 (ip), vehicle: saline with Tween-80
[7] = dose: 12.5 mg/kg/injection, schedule: Q01DX005 (ip), vehicle: Klucel (hydroxypropylcellulose) (HPC)
[8] = dose: 25.0 mg/kg/injection, schedule: Q01DX005 (ip), vehicle: Klucel (hydroxypropylcellulose) (HPC)
[9] = dose: 50.0 mg/kg/injection, schedule: Q01DX005 (ip), vehicle: Klucel (hydroxypropylcellulose) (HPC)
[10] = dose: 100.0 mg/kg/injection, schedule: Q04DX003 (ip), vehicle: saline
[11] = dose: 200.0 mg/kg/injection, schedule: Q04DX003 (ip), vehicle: saline
[12] = dose: 400.0 mg/kg/injection, schedule: Q04DX003 (ip), vehicle: saline
[13] = dose: 60.0 mg/kg/injection, schedule: Q01DX005 (ip), vehicle: saline with Tween-80
[14] = dose: 120.0 mg/kg/injection, schedule: Q01DX005 (ip), vehicle: saline with Tween-80
[15] = dose: 50.0 mg/kg/injection, schedule: Q01DX009 (ip), vehicle: Klucel (hydroxypropylcellulose) (HPC)
[16] = dose: 100.0 mg/kg/injection, schedule: Q01DX009 (ip), vehicle: Klucel (hydroxypropylcellulose) (HPC)
[17] = dose: 200.0 mg/kg/injection, schedule: Q01DX009 (ip), vehicle: Klucel (hydroxypropylcellulose) (HPC)

Measured: T/C

CCC(/C=C/c1ccccc1)=N\Nc1ccccc1
inactive: [1] 104 % of control | [2] 105 % of control | [3] 104 % of control | dose: 400.0 mg/kg/injection, schedule: Q01DX005 (ip), vehicle: saline with Tween-80 98 % of control

CC1CCC2C(C)C(=O)OC3OC4(C)CCC1C32OO4 (centres undefined)
inactive: dose: 2.5 mg/kg/injection, schedule: Q01DX005 (ip), vehicle: saline + alcohol 105 % of control | dose: 5.0 mg/kg/injection, schedule: Q01DX005 (ip), vehicle: saline + alcohol 108 % of control | dose: 10.0 mg/kg/injection, schedule: Q01DX005 (ip), vehicle: saline + alcohol 108 % of control | dose: 20.0 mg/kg/injection, schedule: Q01DX005 (ip), vehicle: saline + alcohol 105 % of control

CCC(CC)(COS(C)(=O)=O)COS(C)(=O)=O
inactive: [4] 104 % of control | [5] 101 % of control | [6] 90 % of control | dose: 400.0 mg/kg/injection, schedule: Q01DX009 (ip), vehicle: saline with Tween-80 89 % of control

Nc1nc(N)c2cc(S(=O)(=O)c3ccc(Cl)cc3)ccc2n1
inactive: [4] 100 % of control | [5] 98 % of control | [6] 97 % of control

CCC(c1ccc(OCCS(=O)(=O)Oc2ccccc2)cc1)C(CC)c1ccc(OCCS(=O)(=O)Oc2ccccc2)cc1 (centres undefined)
inactive: dose: 100.0 mg/kg/injection, schedule: Q04DX003 (ip), vehicle: suspension in saline 99 % of control | dose: 200.0 mg/kg/injection, schedule: Q04DX003 (ip), vehicle: suspension in saline 98 % of control | dose: 400.0 mg/kg/injection, schedule: Q04DX003 (ip), vehicle: suspension in saline 98 % of control

CCCCNC(=O)OCC1=C(COC(=O)NCCCC)C2OC1C(C(=O)OC)=C2C(=O)OC
inactive: dose: 3.13 mg/kg/injection, schedule: Q01DX009 (ip), vehicle: distilled water + Tween-80 109 % of control | dose: 6.25 mg/kg/injection, schedule: Q01DX009 (ip), vehicle: distilled water + Tween-80 101 % of control and 108 % of control and 113 % of control | dose: 50.0 mg/kg/injection, schedule: Q01DX009 (ip), vehicle: distilled water + Tween-80 104 % of control and 108 % of control | dose: 100.0 mg/kg/injection, schedule: Q01DX009 (ip), vehicle: distilled water + Tween-80 95 % of control

CCN(CC)CCOC12CC3CC(CC(C3)C1)C2
inactive: [7] 104 % of control | [8] 101 % of control | [9] 100 % of control and 104 % of control

CC(C)C1[C@H]2OC(=O)[C@@H]1C1CCC3CN(C)C2C31C (some centres undefined)
inactive: dose: 1.25 mg/kg/injection, schedule: Q01DX005 (ip), vehicle: Klucel (hydroxypropylcellulose) (HPC) 99 % of control | dose: 2.5 mg/kg/injection, schedule: Q01DX005 (ip), vehicle: Klucel (hydroxypropylcellulose) (HPC) 99 % of control | dose: 5.0 mg/kg/injection, schedule: Q01DX005 (ip), vehicle: Klucel (hydroxypropylcellulose) (HPC) 96 % of control | dose: 10.0 mg/kg/injection, schedule: Q01DX005 (ip), vehicle: Klucel (hydroxypropylcellulose) (HPC) 95 % of control

CCCCCCCCCCCCCCCCCCOC(=O)Cc1ccc(N(CCCl)CCCl)cc1
active: dose: 45.0 mg/kg/injection, schedule: Q01DX009 (ip), vehicle: saline with Tween-80 168 % of control | dose: 90.0 mg/kg/injection, schedule: Q01DX009 (ip), vehicle: saline with Tween-80 163 % of control | dose: 180.0 mg/kg/injection, schedule: Q01DX009 (ip), vehicle: saline with Tween-80 150 % of control

CC(C)(C)OC(=O)NC(CC(Cc1ccccc1)C(=O)O)C(=O)NC(CC(Cc1ccccc1)C(=O)O)C(=O)NC(CC(Cc1ccccc1)C(=O)O)C(=O)NCC(=O)Oc1ccc([N+](=O)[O-])cc1 (centres undefined)
inactive: dose: 12.5 mg/kg/injection, schedule: Q01DX005 (ip), vehicle: saline with Tween-80 99 % of control | dose: 25.0 mg/kg/injection, schedule: Q01DX005 (ip), vehicle: saline with Tween-80 91 % of control | [1] 89 % of control

Clc1ccc(-c2cc3cc4c(cc3[nH]2)Sc2ccccc2O4)cc1
inactive: [10] 86 % of control | [11] 86 % of control | [12] 98 % of control

CCOCCOCCOC(C)OC(C)Cc1ccc2c(c1)OCO2 (centres undefined)
inactive: [1] 106 % of control | [2] 95 % of control | [3] 112 % of control

COc1cc(C2c3cc4c(c(OC)c3C(O)C3CC(=O)OC23)OCO4)cc(OC)c1OC (centres undefined)
inactive: [13] 115 % of control | [14] 116 % of control

CC1(C)C(=O)NC(=O)c2ccccc21
inactive: [7] 107 % of control | [8] 107 % of control | [9] 100 % of control and 102 % of control

COc1cc([C@@H]2Oc3c(OC)cc4ccc(=O)oc4c3O[C@H]2CO)ccc1O
inactive: dose: 200.0 mg/kg/injection, schedule: Q01DX005 (ip), vehicle: saline + alcohol 87 % of control | dose: 300.0 mg/kg/injection, schedule: Q01DX005 (ip), vehicle: saline + alcohol 94 % of control

COc1ccc2c(c1OC)C(=O)N1CCc3cc4c(cc3C1C2C(=O)O)OCO4 (centres undefined)
inactive: dose: 50.0 mg/kg/injection, schedule: Q04DX003 (ip), vehicle: distilled water + Tween-80 100 % of control | dose: 100.0 mg/kg/injection, schedule: Q04DX003 (ip), vehicle: distilled water + Tween-80 109 % of control | dose: 200.0 mg/kg/injection, schedule: Q04DX003 (ip), vehicle: distilled water + Tween-80 100 % of control | dose: 400.0 mg/kg/injection, schedule: Q04DX003 (ip), vehicle: distilled water + Tween-80 104 % of control

Cc1ccc(C(=O)CC2(O)C(=O)Nc3ccccc32)cc1 (centres undefined)
inactive: [15] 96 % of control | [16] 92 % of control | [17] 87 % of control

C=CCCC(=O)OC(C)(C)C
inactive: dose: 12.5 mg/kg/injection, schedule: Q01DX009 (ip), vehicle: Klucel (hydroxypropylcellulose) (HPC) 102 % of control | dose: 25.0 mg/kg/injection, schedule: Q01DX009 (ip), vehicle: Klucel (hydroxypropylcellulose) (HPC) 101 % of control | [15] 104 % of control | [16] 101 % of control | [17] 103 % of control

COc1cc(NS(C)(=O)=O)ccc1Nc1c2ccccc2nc2c(C)cccc12
inactive: dose: 5.0 mg/kg/injection, schedule: Q01DX009 (ip), vehicle: saline with Tween-80 87 % of control | dose: 6.25 mg/kg/injection, schedule: Q01DX009 (ip), vehicle: Klucel (hydroxypropylcellulose) (HPC) 97 % of control
active: dose: 1.25 mg/kg/injection, schedule: Q01DX009 (ip), vehicle: saline with Tween-80 155 % of control | dose: 2.5 mg/kg/injection, schedule: Q01DX009 (ip), vehicle: saline with Tween-80 165 % of control

CC1(C(N)=O)CO1 (centres undefined)
inactive: [10] 103 % of control | [11] 100 % of control | [12] 100 % of control

CC1=CSC2=NCCCCN12
inactive: dose: 6.25 mg/kg/injection, schedule: Q01DX009 (ip), vehicle: saline 91 % of control | dose: 12.5 mg/kg/injection, schedule: Q01DX009 (ip), vehicle: saline 93 % of control | dose: 25.0 mg/kg/injection, schedule: Q01DX009 (ip), vehicle: saline 92 % of control

O=C(O)c1ccnc2nc[nH]c12
inactive: dose: 100.0 mg/kg/injection, schedule: Q04DX002 (ip), vehicle: Klucel (hydroxypropylcellulose) (HPC) 100 % of control | dose: 200.0 mg/kg/injection, schedule: Q04DX002 (ip), vehicle: Klucel (hydroxypropylcellulose) (HPC) 106 % of control | dose: 400.0 mg/kg/injection, schedule: Q04DX002 (ip), vehicle: Klucel (hydroxypropylcellulose) (HPC) 100 % of control

O=C(Nc1ccc(F)cc1)NN1CCOCC1
inactive: [13] 102 % of control | [14] 104 % of control | dose: 240.0 mg/kg/injection, schedule: Q01DX005 (ip), vehicle: saline with Tween-80 103 % of control

CNC(=O)Oc1cc(C)c[n+]([O-])c1
inactive: dose: 50.0 mg/kg/injection, schedule: Q01DX005 (ip), vehicle: saline 100 % of control | dose: 100.0 mg/kg/injection, schedule: Q01DX005 (ip), vehicle: saline 104 % of control | dose: 200.0 mg/kg/injection, schedule: Q01DX005 (ip), vehicle: saline 104 % of control
